PubChem BioAssay (NCI)
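The concentration for 50% growth inhibition is given as GI50. TGI denotes the concentration required for complete inhibition of growth.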

What was measured:
Assay in all cases: DTP human tumour cell line panel, 384-well format
[1] = system: 786-0 renal
[2] = system: A498 renal
[3] = system: A549 NSCLC
[4] = system: ACHN renal
[5] = system: CCRF-CEM leukemia
[6] = system: COLO 205 colon
[7] = system: EKVX NSCLC
[8] = system: HCC-2998 colon
[9] = system: HCT-116 colon
[10] = system: HCT-15 colon
[11] = system: HL-60(TB) leukemia
[12] = system: HOP-62 NSCLC
[13] = system: HS 578T breast
[14] = system: HT29 colon
[15] = system: IGROV1 ovarian
[16] = system: K-562 leukemia
[17] = system: KM12 colon
[18] = system: LOX IMVI melanoma
[19] = system: M14 melanoma
[20] = system: MALME-3M melanoma
[21] = system: MCF7 breast
[22] = system: MDA-MB-468 breast
[23] = system: MOLT-4 leukemia
[24] = system: NCI-H226 lung
[25] = system: NCI-H23 lung
[26] = system: NCI-H322M lung
[27] = system: NCI-H460 NSCLC
[28] = system: NCI-H522 lung
[29] = system: OVCAR-3 ovarian
[30] = system: OVCAR-4 ovarian
[31] = system: OVCAR-8 ovarian
[32] = system: PC-3 prostate
[33] = system: RPMI-8226 leukemia
[34] = system: RXF 393 renal
[35] = system: SF-268 CNS
[36] = system: SF-295 CNS
[37] = system: SK-MEL-2 melanoma
[38] = system: SK-MEL-5 melanoma
[39] = system: SK-OV-3 ovarian
[40] = system: SN12C renal
[41] = system: SNB-19 CNS
[42] = system: SNB-75 CNS
[43] = system: T-47D breast
[44] = system: TK-10 renal
[45] = system: U251 glioblastoma
[46] = system: UACC-257 melanoma
[47] = system: UACC-62 melanoma
[48] = system: UO-31 renal

With `Nc1ncn(C2OC(CO)C(O)C2O)c(=O)n1` (stereo not given) the GI50 [1] was 1.87 µM, the TGI [1] was > 42.3 µM and the GI50 [2] was 2.5 µM. The TGI [2] was 11.9 µM, the GI50 [3] was 3.24 µM and the TGI [3] was > 38 µM. The GI50 [4] was 1.3 µM, the TGI [4] was 17 µM and the GI50 [5] was 0.993 µM. The TGI [5] was 3.67 µM, the GI50 [6] was 1.41 µM and the TGI [6] was 10.9 µM. For the same compound, the GI50 [7] was 19.5 µM, the TGI [7] was > 75.8 µM and the GI50 [8] was 1.58 µM. The TGI [8] was 5.01 µM, the GI50 [9] was 0.627 µM and the TGI [9] was 2.57 µM. It also gave a GI50 [10] of 2.11 µM, a TGI [10] of 8.05 µM and a GI50 [11] of 0.372 µM. The TGI [11] was 0.806 µM, the GI50 [12] was 0.899 µM and the TGI [12] was 3.51 µM. The GI50 [13] was 1.38 µM, the TGI [13] was 7.12 µM and the GI50 [14] was 3.52 µM. The TGI [14] was 30.1 µM, the GI50 [15] was 2.61 µM and the TGI [15] was 10.3 µM. It also gave a GI50 [16] of 0.657 µM, a TGI [16] of 5.41 µM and a GI50 [17] of 2.54 µM. For the same compound, the TGI [17] was 11.8 µM, the GI50 [18] was 0.531 µM and the TGI [18] was 1.85 µM. For the same compound, the GI50 [19] was 1.45 µM, the TGI [19] was 9.78 µM and the GI50 [20] was 3.3 µM. The TGI [20] was 16.7 µM, the GI50 [21] was 1.56 µM and the TGI [21] was > 29.8 µM. The GI50 [22] was 0.529 µM, the TGI [22] was 1.41 µM and the GI50 [23] was 1.32 µM. It also gave a TGI [23] of 2.72 µM, a GI50 [24] of 4.46 µM and a TGI [24] of 27.8 µM. For the same compound, the GI50 [25] was 7.25 µM, the TGI [25] was 28.4 µM and the GI50 [26] was 1.52 µM. For the same compound, the TGI [26] was 25.7 µM, the GI50 [27] was 0.239 µM and the TGI [27] was 1.27 µM. It also gave a GI50 [28] of 1.58 µM, a TGI [28] of 6.41 µM and a GI50 [29] of 1.46 µM. For the same compound, the TGI [29] was 5.06 µM, the GI50 [30] was 3.33 µM and the TGI [30] was 23.8 µM. The GI50 [31] was 1.99 µM, the TGI [31] was 17.8 µM and the GI50 [32] was 4.16 µM. The TGI [32] was 42.1 µM, the GI50 [33] was 0.138 µM and the TGI [33] was 0.59 µM. It also gave a GI50 [34] of 1.25 µM, a TGI [34] of 10.9 µM and a GI50 [35] of 4.36 µM. The TGI [35] was > 31.9 µM, the GI50 [36] was 2.78 µM and the TGI [36] was 16.5 µM. For the same compound, the GI50 [37] was 0.911 µM, the TGI [37] was 2.85 µM and the GI50 [38] was 0.628 µM. The TGI [38] was 2.12 µM, the GI50 [39] was 3.18 µM and the TGI [39] was > 27.7 µM. It also gave a GI50 [40] of 1.58 µM, a TGI [40] of 35.7 µM and a GI50 [41] of 4.47 µM. The TGI [41] was > 42.2 µM, the GI50 [42] was 2.23 µM and the GI50 [43] was 4.67 µM. For the same compound, the TGI [43] was > 37.6 µM, the GI50 [44] was 2.3 µM and the TGI [44] was 30.5 µM. For the same compound, the GI50 [45] was 1.42 µM, the TGI [45] was > 33.2 µM and the GI50 [46] was 6.88 µM. The TGI [46] was 33.3 µM, the GI50 [47] was 0.561 µM and the TGI [47] was 2.78 µM. The GI50 [48] was 2.5 µM and the TGI [48] was 15.1 µM.
